Measured values as given in PubChem BioAssay (NCI).
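In this assay, cells in 96-well plates receive the compound at five concentrations for 48 hours. Endpoints are linearly interpolated between the surrounding concentrations. GI50: concentration for 50% inhibition of growth. TGI denotes the concentration required for complete inhibition of growth.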

How the values were obtained:
Assay in all cases: growth of human tumour cells (NCI), 48 h
IGROV1 ovarian = system: IGROV1 ovarian
OVCAR-3 ovarian = system: OVCAR-3 ovarian
K-562 leukemia = system: K-562 leukemia
DU-145 prostate = system: DU-145 prostate
RPMI-8226 leukemia = system: RPMI-8226 leukemia
CCRF-CEM leukemia = system: CCRF-CEM leukemia
NCI-H460 lung = system: NCI-H460 lung
MOLT-4 leukemia = system: MOLT-4 leukemia
NCI/ADR-RES ovarian = system: NCI/ADR-RES ovarian
LOX IMVI melanoma = system: LOX IMVI melanoma

For CCN1CCN(Cc2ccc(NC(=O)Nc3ccc(-n4ccc5c(NC(=O)c6ccccc6)nccc54)cc3)cc2C(F)(F)F)CC1, the GI50 (IGROV1 ovarian) was 1.42 µM, the TGI (IGROV1 ovarian) was 4.39 µM and the GI50 (OVCAR-3 ovarian) was 1.32 µM. The TGI (OVCAR-3 ovarian) was 2.63 µM, the GI50 (K-562 leukemia) was 0.0653 µM and the TGI (K-562 leukemia) was 1.52 µM. It also gave a GI50 (DU-145 prostate) of 1.12 µM, a TGI (DU-145 prostate) of 2.34 µM and a GI50 (RPMI-8226 leukemia) of 0.942 µM. The TGI (RPMI-8226 leukemia) was > 100 µM, the GI50 (CCRF-CEM leukemia) was 0.426 µM and the TGI (CCRF-CEM leukemia) was > 100 µM. The GI50 (NCI-H460 lung) was 0.0811 µM and the TGI (NCI-H460 lung) was 1.45 µM.
In the case of C=C1CC(COc2ccc3c(C)c(C)c(=O)oc3c2C)(c2ccccc2)OC1=O (centres undefined), the TGI (IGROV1 ovarian) is reported as 3.47 µM, the TGI (OVCAR-3 ovarian) is reported as 9.66 µM and the TGI (K-562 leukemia) is reported as 3.88 µM. For the same compound, the TGI (DU-145 prostate) was 6 µM, the TGI (MOLT-4 leukemia) was 3.05 µM and the TGI (NCI/ADR-RES ovarian) was 8.24 µM. The TGI (RPMI-8226 leukemia) was 0.764 µM, the TGI (CCRF-CEM leukemia) was 1.55 µM and the TGI (LOX IMVI melanoma) was 2.85 µM. For the same compound, the TGI (NCI-H460 lung) was 18 µM.
With N#Cc1nc(C2CCC(=O)O2)oc1N (centres undefined) the TGI (IGROV1 ovarian) was > 100 µM, the TGI (OVCAR-3 ovarian) was > 100 µM and the TGI (K-562 leukemia) was > 100 µM. For the same compound, the TGI (DU-145 prostate) was > 100 µM, the TGI (MOLT-4 leukemia) was > 100 µM and the TGI (NCI/ADR-RES ovarian) was > 100 µM. For the same compound, the TGI (RPMI-8226 leukemia) was > 100 µM, the TGI (CCRF-CEM leukemia) was > 100 µM and the TGI (LOX IMVI melanoma) was > 100 µM. The TGI (NCI-H460 lung) was > 100 µM.
Compound O=C(OC12CC3CC(CC(C3)C1)C2)c1ccc(NCc2cc(O)ccc2O)cc1 has a TGI (IGROV1 ovarian) of 0.816 µM, a TGI (OVCAR-3 ovarian) of 2.3 µM and a TGI (K-562 leukemia) of 2.38 µM. For the same compound, the TGI (DU-145 prostate) was 16.7 µM, the TGI (MOLT-4 leukemia) was 0.451 µM and the TGI (NCI/ADR-RES ovarian) was 2.76 µM. For the same compound, the TGI (RPMI-8226 leukemia) was 0.401 µM, the TGI (CCRF-CEM leukemia) was 0.723 µM and the TGI (LOX IMVI melanoma) was 8.94 µM. The TGI (NCI-H460 lung) was 16.6 µM.
In the case of O=C(O)C1=NN(c2ccc(S(=O)(=O)O)cc2)C2(C1)C(Cl)C(=O)N2c1nc2ccccc2s1 (centres undefined), the TGI (IGROV1 ovarian) is reported as 21.5 µM, the TGI (OVCAR-3 ovarian) is reported as 33.8 µM and the TGI (K-562 leukemia) is reported as 58.5 µM. For the same compound, the TGI (DU-145 prostate) was 55.9 µM, the TGI (MOLT-4 leukemia) was 39.6 µM and the TGI (NCI/ADR-RES ovarian) was 56.2 µM. It also gave a TGI (RPMI-8226 leukemia) of 35.6 µM, a TGI (LOX IMVI melanoma) of 12.7 µM and a TGI (NCI-H460 lung) of 33.2 µM.
For Clc1ccc(OCc2nnc(COc3ccc(OCc4nnc(COc5ccc(Cl)cc5Cl)o4)c(Cl)c3)o2)c(Cl)c1, the TGI (IGROV1 ovarian) was 38.1 µM, the TGI (OVCAR-3 ovarian) was 61.7 µM and the TGI (K-562 leukemia) was 53.3 µM. The TGI (DU-145 prostate) was > 100 µM, the TGI (NCI/ADR-RES ovarian) was 66.7 µM and the TGI (RPMI-8226 leukemia) was 39.6 µM. The TGI (CCRF-CEM leukemia) was 38.5 µM, the TGI (LOX IMVI melanoma) was 33.4 µM and the TGI (NCI-H460 lung) was > 100 µM.
O=C(Sc1c(-c2ccccc2)c(=O)n(-c2ccccc2)c(=S)n1-c1ccccc1)c1ccco1 was tested, and the TGI (IGROV1 ovarian) was > 100 µM, the TGI (OVCAR-3 ovarian) was > 100 µM and the TGI (K-562 leukemia) was > 100 µM. For the same compound, the TGI (DU-145 prostate) was > 100 µM, the TGI (MOLT-4 leukemia) was > 100 µM and the TGI (NCI/ADR-RES ovarian) was > 100 µM. For the same compound, the TGI (RPMI-8226 leukemia) was > 83.7 µM, the TGI (CCRF-CEM leukemia) was 69.3 µM and the TGI (LOX IMVI melanoma) was > 100 µM. For the same compound, the TGI (NCI-H460 lung) was > 100 µM.
In the case of C[N+]1(CCN=C=NC2CCCCC2)CCOCC1, the TGI (IGROV1 ovarian) is reported as > 100 µM, the TGI (OVCAR-3 ovarian) is reported as > 100 µM and the TGI (K-562 leukemia) is reported as > 100 µM. The TGI (DU-145 prostate) was > 100 µM, the TGI (MOLT-4 leukemia) was > 100 µM and the TGI (NCI/ADR-RES ovarian) was > 100 µM. For the same compound, the TGI (RPMI-8226 leukemia) was > 100 µM, the TGI (CCRF-CEM leukemia) was > 100 µM and the TGI (LOX IMVI melanoma) was > 100 µM. For the same compound, the TGI (NCI-H460 lung) was > 100 µM.
CC(=O)N(C)c1ccc(Nc2ccnc3ccc4nn(C)nc4c23)cc1 showed a TGI (OVCAR-3 ovarian) of 50 µM, a TGI (DU-145 prostate) of 92.2 µM and a TGI (MOLT-4 leukemia) of 58 µM. For the same compound, the TGI (NCI/ADR-RES ovarian) was > 100 µM, the TGI (RPMI-8226 leukemia) was 46.9 µM and the TGI (CCRF-CEM leukemia) was 42 µM. The TGI (LOX IMVI melanoma) was 30.6 µM.
For COc1ccc(OC/C(N=Cc2ccncc2)=N/NC(=O)c2ccncc2)cc1, the TGI (IGROV1 ovarian) was > 100 µM, the TGI (OVCAR-3 ovarian) was > 100 µM and the TGI (K-562 leukemia) was > 100 µM. For the same compound, the TGI (DU-145 prostate) was > 100 µM, the TGI (MOLT-4 leukemia) was > 100 µM and the TGI (NCI/ADR-RES ovarian) was > 100 µM. For the same compound, the TGI (RPMI-8226 leukemia) was > 100 µM, the TGI (CCRF-CEM leukemia) was > 100 µM and the TGI (LOX IMVI melanoma) was > 100 µM. The TGI (NCI-H460 lung) was > 100 µM.
